# Results published in US9567586B2, “EpCAM aptamer for detection of cancer stem cells” (DEAKIN UNIVERSITY, priority 2012, dated 2017).
# Like-named read-outs stand apart in the source and are kept apart here.
# Experiments:
# [1] = target: T1, native EpCAM expressed on the cell surface (Homo sapiens, UniProt P16422); assay: Binding affinities of EpCAM aptamers by flow cytometry; settings: read-out: KD (±SEM)
# T1 construct: host or cells: T47D, MCF7, MDA-MB-231, HT-29 (EpCAM-positive); U118MG (EpCAM-negative control)
# T1 sequence (P16422 24-314): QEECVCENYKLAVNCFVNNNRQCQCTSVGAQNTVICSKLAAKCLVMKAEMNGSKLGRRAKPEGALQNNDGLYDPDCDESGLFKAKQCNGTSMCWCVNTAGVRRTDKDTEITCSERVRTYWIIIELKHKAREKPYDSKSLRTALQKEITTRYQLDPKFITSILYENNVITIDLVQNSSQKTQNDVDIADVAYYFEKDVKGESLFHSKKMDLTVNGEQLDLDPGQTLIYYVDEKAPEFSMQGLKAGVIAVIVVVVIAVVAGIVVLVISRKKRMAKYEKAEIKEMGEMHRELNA
# Method: (§1) Cells were harvested at 80% confluence with trypsin digestion and resuspended in washing buffer (DPBS with 5 mM MgCl2) and enumerated. Following centrifugation (1000×g for 5 min), the cell pellet was resuspended in assay buffer (DPBS supplemented with 5 mM MgCl2, 0.1 mg/ml tRNA, 0.1 mg/ml salmon sperm DNA, 0.2% [w/v] sodium azide, and 5% FCS) and diluted to 1×10^6/mL. The blocking step was carried out at 4′C. The binding of the aptamers was carried out at 37′C for 30 min or 4′C for 1 h, with the final concentration of magnesium chloride being 2.5 mM in all binding assays.
# (§2) The equilibrium dissociation constant (K′d) of successful 2′-fluoropyrimidine RNA aptamer species to native EpCAM expressed on the cell surface was determined using flow cytometry with EpCAM-positive and -negative cell lines and a negative control (2-O-methyl-pyrimidine) aptamer (5′-DY647-mGCmGACUmGmGUUmACCCmGmGUCmGdT-3′) (SEQ ID NO:13). Kato III or U118MG cells (5×10^5) were first incubated with assay buffer followed by two washes with binding buffer prior to incubation with serial concentrations (approximately 10-fold above and below the apparent K′d) of FITC-labelled aptamer in a 100 μL assay buffer for 1 h on ice. The cells were washed three times, resuspended in 150 μL assay buffer containing 2.5 mM MgCl2 and subjected to flow cytometric analyses. The FITC-labelled unselected library was used as another negative control. The mean fluorescence intensity (MFI) of the unselected library was subtracted from that of the aptamer-target cell to generate the MFI of specific binding. The K′d for each aptamer was determined by Scatchard analysis according to the equation: [Bound aptamer]/[aptamer]=−(1/KD)×[bound aptamer]+([T]tol/KD) where [T]tot represents the total target concentration. Design and Generation of EpCAM Aptamer-siRNA Chimera
# (§3) The binding affinities of both aptamers have been characterised against all five cell lines used in this study by flow cytometry, and the results are shown in Table 1.
# [2] = system: native EpCAM expressed on the cell surface; assay: as above; parameters: species or system human; settings: U118MG cells (EpCAM negative); read-out: KD (±SEM)
# Method: as §1, §2, §3
# HT-29 tumor sphere = assay: Penetration and retention in HT-29 tumor sphere (confocal microscopy); format: cell-based, human; settings: for penetration into tumor sphere: 100 nM, 0.5-4 h incubation, sphere ~300-400 μm; for fluorescence signal retained in tumor sphere: 4 h incubation, wash, further 24 h in culture medium
# Method: HT-29 or HEK293T cells were cultured in stem cell culture medium (DMEM/F12 with 20 ng/ml EGF and FGF and B27). […] After incubating for 0.5, 1, 2 or 4 h, the spheres were washed twice with PBS and imaged via fluorescence confocal microscopy. A phase contrast image of the sphere was also taken for each sample. Panel A fluorescence image for antibody EpCAM, Panel B phase contrast image for tumor sphere. Panel C: fluorescence image for aptamer EpCAM 23, Panel D: phase contrast image for tumor sphere. Panel E: fluorescence image aptamer control, Panel F: phase contrast image for tumor sphere.
# Tumour spheres were incubated with EpCAM antibody, aptamer-23 or control aptamer for 4 h. After washing with PBS twice, the tumor spheres were incubated with the culture medium for a further 24 h followed by confocal microscopy. Panel A: fluorescence image for antibody or aptamer. Panel B: phase contrast image for tumour sphere.
# To study the ability of EpCAM aptamer or antibody to penetrate tumors, the inventors used a three-dimensional in vitro tumor sphere model. […] After incubating for the indicated time, the spheres were washed twice with PBS and imaged via fluorescence confocal microscopy. A phase contrast image of the sphere was also taken for each sample. […] A retention study was performed whereby the tumour spheres were incubated with EpCAM antibody, aptamer-23 or control aptamer for 4 h, after washing with PBS twice, the tumor spheres were incubated with the culture medium for a further 24 h followed by confocal microscopy.
Substance,Kd ([1]; HT29 cells) [µM],Kd ([1]; MCF7 cells) [µM],Kd ([1]; MDA-MB-231 cells) [µM],Kd ([1]; T47D cells) [µM],Kd [2] [µM],penetration into tumor sphere (HT-29 tumor sphere),fluorescence signal retained in tumor sphere (HT-29 tumor sphere),retention by the tumor cells (HT-29 tumor sphere; after 4 h incubation and wash)
"5′-ACGUAUCCCUUUUCGCGUA-3′ (RNA aptamer, fluorescent dye conjugate used, modifications not given here, further chemistry not given here) [compound 23]",0.037 ± 0.0236,0.0637 ± 0.0404,0.0867 ± 0.0685,0.0412 ± 0.0292,> 1,could penetrate into the core or center of the tumor sphere,clearly detectable signal,at least 24 hours
"5′-DY647-mGCmGACUmGmGUUmACCCmGmGUCmGdT-3′ (GCGACUGGUUACCCGGUCGN; 5' DY647, 2'-O-methyl, 3' dT, further chemistry not given here) [Control]",0.837 ± 0.265,> 1,> 1,> 1,> 1,only limited non-specific binding,very weak signal,–
